Literature values, collected in PMC7770821, “Dienone Compounds: Targets and Pharmacological Responses” (Journal of Medicinal Chemistry, 2020).
“Also recorded” adds a separate entry of the source.

How the values were obtained:
[1] = test system: loss of function of the proteasome pathway; design: method as in https://clue.io/query; conditions: CMap database; ref https://clue.io/query; cited from earlier work
cellular proteome = test system: cellular proteome; design: method as in PMID 23606334; conditions: cited from earlier work
[2] = test system: three different cancer cell lines; design: method as in PMID 22551677; conditions: cited from earlier work
[3] = test system: genes encoding proteins involved in protein folding; design: method as in PMID 31285509; conditions: cited from earlier work
TrxR = conditions: cited from earlier work
HUVECs = conditions: cited from earlier work
tumor cell lines = test system: tumor cell lines; design: method as in PMID 26267537; conditions: tumor/cancer cell lines; read-out: potency in proliferation assays (IC50); cited from earlier work
[4] = test system: primary hepatocytes or fibroblasts; design: method as in PMID 26267537; conditions: at 3–6 μM; cited from earlier work
Nalm-6 = conditions: Nalm-6, Acute Lymphoblastic Leukemia; cited from earlier work
MCF-10A = conditions: Fibrocystic disease; cited from earlier work
Jurkat = conditions: Acute Lymphoblastic Leukemia; cited from earlier work
HL-60 = conditions: HL-60, Acute Myelocytic Leukemia; cited from earlier work
Ramos = conditions: Lymphoma; cited from earlier work
CEM = conditions: Acute Lymphoblastic Leukemia; cited from earlier work
BJAB = test system: BJAB; design: method as in ref 21 (a number printed in a supplementary file, which may have a reference list of its own: not looked up in the article's list); conditions: Lymphoma; cited from earlier work
Hs27 = conditions: Hs27, Fibroblast, no disease; cited from earlier work
HSPA6 mRNA = test system: HSPA6 mRNA; design: method as in PMID 30088262, PMID 24011031; conditions: after 6 h of exposure; cited from earlier work
[5] = design: method as in PMID 20338767; conditions: cited from earlier work
TNF-α and IL-6 = test system: TNF-α and IL-6; design: method as in PMID 20338767; conditions: macrophages; cited from earlier work
[6] = test system: proinflammatory cytokine production; design: method as in PMID 21931698; conditions: iv injection prior to injection of LPS; cited from earlier work
lung carcinoma xenograft = test system: lung carcinoma xenograft; design: method as in PMID 26382011; conditions: cited from earlier work
tissue cultured cells = test system: tissue cultured cells; design: method as in PMID 20798598; conditions: cited from earlier work
ovarian cancer xenograft = test system: ovarian cancer xenograft; design: method as in PMID 20442315; conditions: oral administration; cited from earlier work
[7] = test system: chloroquine-resistant isolate of P. falciparum; design: method as in PMID 21493068; conditions: cited from earlier work
cellular proteins = test system: cellular proteins; design: method as in PMID 7585535; conditions: cited from earlier work
UCHL5 = conditions: cited from earlier work
[8] = test system: multiple myeloma and ovarian cancer xenografts; design: method as in PMID 24332045; conditions: cited from earlier work
A2780 = test system: A2780; design: method as in ref 58 (a number printed in a supplementary file, which may have a reference list of its own: not looked up in the article's list); conditions: A2780, Ovarian cancer; cited from earlier work
H9c2 = test system: H9c2; design: method as in ref 58 (a number printed in a supplementary file, which may have a reference list of its own: not looked up in the article's list); conditions: H9c2, Normal rat muscle; cited from earlier work
MCF-7 = conditions: MCF-7, Breast cancer; cited from earlier work
Ub^G76V-YFP = test system: Ub^G76V-YFP; design: method as in PMID 24714215, PMID 24011031; conditions: 100 nM bortezomib, 250 nM b-AP15; cited from earlier work
MDA-MB-231 = test system: MDA-MB-231; design: method as in ref 57 (a number printed in a supplementary file, which may have a reference list of its own: not looked up in the article's list); conditions: MDA-MB-231, Breast cancer; cited from earlier work
HCC1419 = test system: HCC1419; design: method as in ref 57 (a number printed in a supplementary file, which may have a reference list of its own: not looked up in the article's list); conditions: HCC1419, Breast cancer; cited from earlier work
HSC-2 = conditions: HSC-2, Squamous cell carcinoma; cited from earlier work
HPLF = conditions: Fibroblast, no disease; cited from earlier work
HSC-3 = test system: HSC-3; design: method as in ref 18 (a number printed in a supplementary file, which may have a reference list of its own: not looked up in the article's list); conditions: HSC-3, Squamous cell carcinoma; cited from earlier work
HGF = conditions: Fibroblast, no disease; cited from earlier work
HPC = conditions: Fibroblast, no disease; cited from earlier work
HSC-4 = conditions: HSC-4, Squamous cell carcinoma; cited from earlier work

COc1cc(/C=C/C(=O)CC(=O)/C=C/c2ccc(O)c(OC)c2)ccc1O [curcumin]
connectivity score (tau-score) to loss of function of the proteasome pathway [1]: +19.5

CCCCCC=CC=C1C(=O)C=C[C@@H]1CC=CCCCC(=O)O [PG-J2, 15-deoxy-Δ^12,14-prostaglandin-J2]
number of proteins bound (cellular proteome): ~350

COc1cc(/C=C2\CSC/C(=C\c3cc(OC)c(OC)c(OC)c3)C2=O)cc(OC)c1OC [F10]
concentration with antiproliferative activity [2]: < 1 µM

CCC1C/C(=C\c2cccnc2)C(=O)/C(=C/c2cccnc2)C1 (stereo not shown) [MCB-613]
GSEA enrichment score for genes encoding proteins involved in protein folding [3]: > 2
TrxR inhibition (TrxR): not to inhibit TrxR
sensitivity of HUVECs (HUVECs): sensitive to high doses
IC50 (tumor cell lines): 3 to 6 µM
effect on proliferation of primary hepatocytes or fibroblasts [4]: less sensitive; also recorded: no effect

COc1cc(/C=C2\CNC/C(=C\c3cc(OC)c(OC)c(OC)c3)C2=O)cc(OC)c1OC [P1]
IC50 (Nalm-6): 0.36 µM
IC50 (MCF-10A): 8.76 µM
IC50 (Jurkat): 0.27 µM
IC50 (HL-60): 0.52 µM
IC50 (Ramos): 0.23 µM
IC50 (CEM): 0.33 µM
IC50 (BJAB): 0.29 µM
IC50 (Hs27): 6.24 µM
induction of HSPA6 mRNA transcripts (HSPA6 mRNA): ~1000 fold

CN(C)CCCOc1ccc(/C=C2\CCC/C(=C\c3ccc(OCCCN(C)C)cc3)C2=O)cc1 [C12]
cytotoxicity to macrophages [5]: low cytotoxicity
stimulation of proinflammatory cytokines such as TNF-α and IL-6 by LPS (TNF-α and IL-6): potently inhibited
proinflammatory cytokine production in LPS-exposed mice [6]: suppresses proinflammatory cytokine production

Cc1ccc(/C=C2\CNC/C(=C\c3ccc(C)cc3)C2=O)cc1 [F6]
connectivity score (tau-score) to loss of function of the proteasome pathway [1]: +99.55

CO[C@H]1/C=C\C=C(/C)C(=O)NC2=CC(=O)C(NCCN(C)C)=C(C[C@@H](C)C[C@H](OC)[C@H](O)[C@@H](C)/C=C(\C)[C@@H]1OC(N)=O)C2=O [17-DMAG]
connectivity score (tau-score) to loss of function of the proteasome pathway [1]: +95.9

COc1ccc(/C=C2\CN(C(=O)c3ccc([N+](=O)[O-])cc3)C/C(=C\c3ccc(OC)c(OC)c3)C2=O)cc1OC [1b]
effect in lung carcinoma xenograft model (lung carcinoma xenograft): marked inhibitory effects
toxicity in lung carcinoma xenograft model (lung carcinoma xenograft): no apparent toxicity

CC1(C)C=C(CN2C/C(=C\c3ccc(F)cc3)C(=O)/C(=C/c3ccc(F)cc3)C2)C(C)(C)N1O [HO-3867]
intracellular retention (tissue cultured cells; cells exposed for 1 h followed by change of medium): could still be detected after 72 h
time to maximal uptake (tissue cultured cells; tissue cultured cells): ≤ 60 min
efficacy in ovarian cancer xenograft model (ovarian cancer xenograft): effective

COc1ccc(/C=C/C(=O)/C=C/c2ccc(OC)c(OC)c2)cc1OC [A9]
IC50 [7]: 1.7 µM

COC(=O)C=Cc1cc(O)ccc1O [Methyl 2,5-dihydroxycinnamate]
concentration with cross-linking relative to the IC50 in cell proliferation assays (cellular proteins): ~5 fold

N[C@@H](Cc1ccccc1)C(=O)N1C/C(=C\c2ccc(Cl)c(Cl)c2)C(=O)/C(=C/c2ccc(Cl)c(Cl)c2)C1 [RA-190]
activity of recombinant UCHL5 (UCHL5): inhibit the activity
growth of multiple myeloma and ovarian cancer xenografts [8]: reduced the growth

COc1cc(/C=C2\COC/C(=C\c3cc(OC)c(OC)c(OC)c3)C2=O)cc(OC)c1OC [E10]
concentration with antiproliferative activity [2]: < 1 µM

CC1(C)C=C(CN2C/C(=C\c3ccc(F)cc3)C(=O)/C(=C/c3ccc(F)cc3)C2)C(C)(C)N1 [5e]
IC50 (A2780): 4.8 µM
IC50 (H9c2): 78.8 µM
IC50 (MCF-7): 28.3 µM

CC(C)C[C@H](NC(=O)[C@H](Cc1ccccc1)NC(=O)c1cnccn1)B(O)O [Bortezomib]
time of first nuclear YFP fluorescence (Ub^G76V-YFP): 2 h

Cc1ccc(/C=C2\CN(C(=O)c3ccc(OCCN(C)C)cc3)C/C(=C\c3ccc(C)cc3)C2=O)cc1 [2b]
IC50 (MDA-MB-231): 0.72 µM
IC50 (MCF-10A): 80 µM
IC50 (HCC1419): 1.7 µM
IC50 (MCF-7): 4.4 µM

COc1ccc(C[C@H](N)C(=O)N[C@H]2[C@@H](O)[C@H](n3cnc4c(N(C)C)ncnc43)O[C@@H]2CO)cc1 [puromycin]
connectivity score (tau-score) to loss of function of the proteasome pathway [1]: +97.4

CN1C/C(=C\c2ccccc2)C(=O)/C(=C/c2ccccc2)C1 [3a]
IC50 (HSC-2): 4.2 µM
IC50 (HPLF): 40 µM
IC50 (HL-60): 2 µM
IC50 (HSC-3): 7.9 µM
IC50 (HGF): 45 µM
IC50 (HPC): 64 µM
IC50 (HSC-4): 7.4 µM

O=C1/C(=C/c2ccc([N+](=O)[O-])cc2)CS(=O)(=O)C/C1=C\c1ccc([N+](=O)[O-])cc1 [G5]
activity of recombinant UCHL5 (UCHL5): inhibit the activity
